Assay results as given in patent US9650399B2, “Salicylic acid derivatives, pharmaceutically acceptable salt thereof, composition thereof and method of use thereof” (The Governing Council of the University of Toronto, priority 2012, dated 2017).
Entries after “also recorded” stand apart in the source; their conditions may differ. Read-outs that look alike come from different tables or passages of the source.

Columns and labels:
BT73 brain tumours = assay: BT73 orthotopic xenograft, in vivo on-target assessment; settings: 10 mg/kg i.p., 10 doses
Procedure: For in vivo on-target Assessment, BTIC spheres from BT73 were enzymatically dissociated (Accumax, eBioscience) to single cell suspensions. Cells were washed in PBS and re-suspended at 10^5 cells per 3 μL media for orthotopic xenografts. Six non-obese diabetic severe combined immunodeficiency (NOD SCID) mice were each xenografted with 10^5 BT73 cells stereotactically implanted into the right striatum. Seven days following implants, mice were randomized into vehicle and drug cohorts and injected i.p., four days on, three days off, for a total of 10 doses. […] Vehicle-treated mice received an equal volume of 50% PEG 300 in water. Mice were euthanized with a lethal dose of sodium pentobarbitol, followed by transcardiac perfusion of 4% paraformaldehyde (PFA) two hours following injection of the last drug dose. […] Hematoxylin and eosin (H&E) staining was performed according to standard protocols. Immunohistochemistry was performed by incubating with primary antibodies overnight at 4° C. followed by the Vectastain Elite mouse IgG or rabbit IgG kits (Vector Laboratories) and detection with DAB substrate and hematoxylin counterstaining (Sigma-Aldrich) according to the manufacturer's instructions. Primary antibodies included—STAT3 S727 (Cell Signaling Technology) and Ki67 (Novocastra). Secondary antibodies included biotin conjugated goat anti-rabbit (Jackson Immunoresearch).) Xenograft tumor cells undergoing apoptosis were also detected with the ApopTag Plus Peroxidase In Situ Apoptosis Detection Kit (Chemicon International, Inc., Temecula, Calif.) according to the manufacturer's instructions (TUNEL assay).

101 diverse kinases = assay: KINOMEscan kinome screen; format: binding; settings: 500 nM; hit defined as >35% inhibition
Procedure: […] The test compound was evaluated at a single dose of 500 nM. Kinase-tagged T7 phage strains were grown in parallel in 24-well blocks in an E. coli host derived from the BL21 strain. E. coli were grown to the log-phase and were then infected with T7 phage from a frozen stock (multiplicity of infection=0.4) and incubated at 32° C. with shaking until lysis (90-150 minutes). Lysates were centrifuged (6,000×g) and filtered (0.2 μm) to remove any cell debris. The remaining kinases were produced in HEK-293 cells and were then tagged with DNA for easy quantitative PCR (qPCR) detection. […] The liganded beads were blocked with excess biotin and washed with blocking buffer (SeaBlock (Pierce), 1% BSA, 0.05 Tween 20, 1 mM DTT) in order to remove unbound ligand and to also reduce non-specific phage binding. […] All reactions were performed in polypropylene 384-well plates in a final volume of 40 μL. […] Kinase concentration in eluates was measured by qPCR (FIG. 6).

STAT3 SH2 domain = STAT3 SH2 domain (Homo sapiens, UniProt P40763); assay: fluorescence polarization (FP) assay, STAT3; settings: 5-FAM-GpYLPQTV-NH2 probe
Procedure: The buffer used contained 50 mM NaCl, 10 mM Hepes, pH 7.5, 1 mM EDTA and 2 mM dithiothreitol and a final concentration of 5% DMSO.
Test compounds were dissolved in DMSO and diluted using a dilution medium consisting of 50 mM NaCl, 10 mM Hepes, pH 7.5, 1 mM EDTA, and 2 mM dithiothreitol. Fluorescently-labelled pYLPQTV peptide (FAM-pYLPQTV) was kept at a final concentration of 10 nM in the buffered solution.
The midpoint of the saturation curve was used to determine the STAT3 concentration required for the competitive fluorescent polarization assay. […] 7.5 μL of inhibitory molecules (and positive control) solution were individually added to the plate. The final inhibitory concentrations were 100 μL, 50 μL, 25A, 12.5 μL, 6.3 μL, or 3.1 μL. The 10% DMSO buffer solution was incubated for 15-30 minutes before signal measurements by the Infinite M1000.

[1] = system: STAT3 phosphorylation (Y705); assay: Western blot of IL-6 stimulated pSTAT3 in pancreatic cancer cells; format: cell-based; settings: 1 hr pretreatment, IL-6 50 ng/mL 15 min, Pa03C
Procedure: Low passage patient-derived pancreatic cancer lines (Pa03C and Panc10.05) were plated in 6-well plates (2×10^5 and 8×10^4, respectively) and allowed to attach overnight. STAT3 inhibitors were added for 1 hr prior to IL-6 stimulation (50 ng/mL, 15 min). STAT3 inhibitors were present during IL-6 stimulation. Cells were harvested and lysed for Western blotting. phospho-Specific STAT3 antibody (Y705) was used to look at STAT3 phosphorylation and total STAT3 antibody was used to normalize activation of STAT3. Antibodies were from Cell Signaling and used at a 1:1000 dilution.

[2] = system: patient-derived pancreatic cancer line (Panc10.05); assay: MTS cell survival, pancreatic cancer line; format: cell-based; settings: Homo sapiens, Panc1005, Panc10.05, 72 h, read-out: ED50 (IC50)
Procedure: Low passage patient-derived pancreatic cancer line (Panc10.05) was plated in 96-well plates (3×10^3 per well) and allowed to attach overnight. STAT3 inhibitors 31, 41, 42 and 38 were added at indicated concentrations. Cell survival was measured 72 h after drug addition with the MTS assay.

127EF = assay: alamarBlue cell viability, BTSC 127EF; format: cell-based; settings: Homo sapiens, read-out: EC50 against 127EF
Text: . BTSC spheres were dissociated to single cells with the enzyme Accumax (Innovative Technologies), seeded at 1500 cells/96-well and treated with drug or vehicle (DMSO) one day after plating. Cytotoxicity studies were repeated independently at Sickkids Hospital using BTSC lines 25M, 67EF, 73EF, 84EF and 127EF. BTSC spheres were dissociated to single cells as above and plated in 96 well plates in triplicate at 3000 cells/96-well. In both sets of experiments drugs were used as serial dilutions within the range of 5 μM to 100 nM in the first set and 25 μM to 10 nM. Cell viability following drug treatment was assessed three days later using the ALAMARBLUE™ assay (Invitrogen) according to the manufacturer's instructions. All culture experiments were performed in triplicate with a minimum of three wells per condition. Table 4 below illustrates a screen of the library against a number of BTSCs using ALAMARBLUE™ assay.

[3] = system: patient-derived pancreatic cancer line (Pa03C); assay: 3D culture cytotoxicity (Alamar Blue) with and without cancer-associated fibroblasts; format: cell-based; settings: presence and absence of CAFs, Alamar Blue Day 11
Procedure: FIG. 11 illustrates the effects of STAT3 inhibitor 31 on low passage patient-derived pancreatic cancer line (Pa03C) plated in a 96-well plate coated with 1% Noble Agar in media containing 3% Matrigel, with and without cancer-associated fibroblasts. The ratio of the tumor to CAFs is 1:4. Tumor spheres begin to form around Day 3, and STAT3 inhibitor 31 added at Day 4 and 8. Cytotoxicity is assessed by fluorescence using Alamar Blue assay on Day 11.

BTSC73M = assay: alamarBlue cell viability, BTSC 73M; format: cell-based, human; settings: Homo sapiens
Summary of the method: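 Patient-derived GBM brain tumour stem cells, dissociated spheres seeded at 1500 cells/96-well, or 3000 cells/96-well in one setup. Drug or DMSO vehicle added one day after plating. Viability read by alamarBlue after 72 hrs, triplicate wells.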

pSTAT3 (Y705) = assay: Western blot of phosphorylated STAT3 in BTSCs; format: cell-based, human; settings: for suppression of pSTAT3 (Y705): 1 μM
Text: Blots were stained with antibodies: phospho-Y705, phospho-S727, Bcl-xL, cyclin D1, PARP and Actin. Bands were visualized with the ECL PLUS™ Western Blotting Detection System and […]™ (Amersham). […] BTSC spheres were lysed in modified RIPA buffer supplemented with Complete Mini protease (Roche) and Halt phosphatase (Thermo Scientific) inhibitor cocktails. […] Blots were stained with the following antibodies: phospho-STAT3 Y705 (1:1000, Cell Signalling Technology), phospho-STAT3 S727 (1:1000, Cell Signalling Technology), STAT3 (1:1000, Santa Cruz Biotechnology), Bcl-xL (1:1000, Cell Signalling Technology), cyclin D1 (1:1000, Cell Signalling Technology) PARP (1:1000, Cell Signalling Technology) and Actin (1:2500, Santa Cruz Biotechnology). HRP conjugated secondary antibodies, goat anti-rabbit (Cell Signalling Technology) were used at 1:2000 and donkey anti-mouse, donkey anti-goat, and goat anti-rabbit, (Calbiochem) were used at 1:6000. Bands were visualized with the ECL Plus Western Blotting Detection System and Hyperfilm (Amersham).

Chain of STAT3 SH2 domain (P40763 whole entry, the tested form may be a part): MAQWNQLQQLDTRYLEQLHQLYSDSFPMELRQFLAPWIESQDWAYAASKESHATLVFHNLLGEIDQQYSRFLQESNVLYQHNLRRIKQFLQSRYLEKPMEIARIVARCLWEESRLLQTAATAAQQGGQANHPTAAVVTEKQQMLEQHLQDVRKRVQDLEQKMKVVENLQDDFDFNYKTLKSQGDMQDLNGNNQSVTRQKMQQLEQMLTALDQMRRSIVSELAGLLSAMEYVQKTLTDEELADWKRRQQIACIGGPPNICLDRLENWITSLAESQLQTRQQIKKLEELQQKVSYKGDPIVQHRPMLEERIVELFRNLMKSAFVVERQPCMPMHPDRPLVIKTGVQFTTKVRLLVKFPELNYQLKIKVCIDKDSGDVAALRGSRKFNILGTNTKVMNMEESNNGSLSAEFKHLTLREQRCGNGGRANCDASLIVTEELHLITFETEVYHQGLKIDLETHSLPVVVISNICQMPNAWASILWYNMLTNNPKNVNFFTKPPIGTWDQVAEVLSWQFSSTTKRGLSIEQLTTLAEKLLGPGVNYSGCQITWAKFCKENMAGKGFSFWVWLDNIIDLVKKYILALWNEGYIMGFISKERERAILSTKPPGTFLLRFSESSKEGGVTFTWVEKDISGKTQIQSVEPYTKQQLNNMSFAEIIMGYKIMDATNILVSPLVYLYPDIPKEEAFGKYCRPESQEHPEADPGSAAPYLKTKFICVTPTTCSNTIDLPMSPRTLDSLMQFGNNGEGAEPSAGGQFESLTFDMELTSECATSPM

Compound: CN(CC(=O)N(Cc1ccc(C2CCCCC2)cc1)c1ccc(C(=O)O)cc1)S(=O)(=O)c1c(F)c(F)c(F)c(F)c1F [Compound 31, 4-(N-(4-cyclohexylbenzyl)-2-(2,3,4,5,6-pentafluoro-N-methylphenylsulfonamido)acetamido)benzoic acid]
- activated phospho-STAT immunohistochemical staining (BT73 brain tumours): reduced immunohistochemical staining
- apoptosis, TUNEL staining (BT73 brain tumours): Increased TUNEL staining
- expression of proliferation marker Ki67 (BT73 brain tumours): Decreased expression of proliferation marker Ki67
- tumour cells, hematoxylin/eosin staining (BT73 brain tumours): significant decrease in tumour cells
- off-target kinase activity, kinome screen (101 diverse kinases): negligible effects; also recorded: does not inhibit any of the 101 kinases
- disruption of STAT3:phosphopeptide interaction / binding activity (in words) (STAT3 SH2 domain): effectively disrupt STAT3/phosphopeptide interactions
- de novo phosphorylation of STAT3 [1]: potently inhibits de novo phosphorylation of STAT3 protein
- IC50 [2]: 6200 nM
- EC50 (127EF): 66 ± 33.9 nM
- killing of tumor cells grown in 3D cultures [3]: effectively kills tumor cells
- IC50 (BTSC73M; Table 2, BTSC 73M, alamarBlue, 72 hrs, read-out: IC50 (μM) 73M): 1.03 ± 0.031 µM
- IC50 (BTSC73M; Table 4 library screen, alamarBlue, read-out: 73M IC50): 1.03 µM
- pSTAT3 inhibition potency (pSTAT3 (Y705); 0, 0.1, 0.5, 1.0 and 5.0 μM, Western blot): concentration-dependant decreases in pSTAT3 levels
- pSTAT3 signalling (pSTAT3 (Y705); 500 nM, Western blot, BTSCs): completely silenced pSTAT3 signalling
- suppression of pSTAT3 (Y705) (pSTAT3 (Y705); Western blot, BTSCs): most suppression of pSTAT3 (Y705)
- pSTAT3 suppression, comparative Western blot (pSTAT3 (Y705); BTSC 73M, 1 μM inhibitor): equipotent pSTAT3 suppression

Compound: CN(CC(=O)N(Cc1ccc(C2CCCCC2)cc1)c1ccc(C(=O)NO)cc1)S(=O)(=O)c1c(F)c(F)c(F)c(F)c1F [Compound 32, 4-(N-(4-cyclohexylbenzyl)-2-(2,3,4,5,6-pentafluoro-N-methylphenylsulfonamido)acetamido)-N-hydroxybenzamide]
- IC50 (BTSC73M; read-out: 73M IC50 (μM)): 1.52 µM
- suppression of pSTAT3 (Y705) (pSTAT3 (Y705); Western blot, BTSCs): most suppression of pSTAT3 (Y705)
